Drawing on a melting point compilation (Tetko et al.; mined from patent text by program, amines drawn as free bases though some values may be those of a salt), this text covers melting point for 88 molecules.

Bounds are passed on as bounds.

What is called melting point is the temperature, or range, at which the solid turns liquid. Consider `Cc1ccc(Sc2cncc3sc(C(N)=O)cc23)cc1`, for which the melting point is 198 to 199 °C. Regarding `COCCCN1CCC(CNC(=O)c2cc(Cl)c(N)n3cc(C)nc23)CC1`, the melting point stood at 167 °C. `CC(C)(C)OC(=O)NCCn1cnc2cnc3ccccc3c21` gave a melting point of 154 to 155 °C. Consider `COc1cc2c(cc1O)CCN(S(=O)(=O)c1ccccc1OC)C2`, for which the melting point is 140 to 142 °C. `O=C(O)c1ccccc1C(=O)c1ccncc1` had a melting point of 191 to 193 °C. The value for `CC(=O)NCC(=O)NS(=O)(=O)c1ccc(-c2c(-c3ccccc3)noc2C)cc1` was 218 to 219 °C; that for `CCCC(c1ccc(C(=O)O)cc1OCc1ccc(Br)cc1)n1ccnc1` (stereo not drawn) was 155 to 158 °C; that for `NCCOc1c(Cl)ccc2c1c1cccc3c1n2C(c1ccccc1)CO3` (stereo not drawn) was 127 to 128 °C. In turn, `C=CCSc1nc(-c2ccc(OC)cc2)c(-c2ccc(OC)cc2)s1` gave a melting point of 57 to 58 °C. Turning to `Cc1ccc(C(=O)Nc2cn(C3CCCCO3)nc2C(=O)NCC(F)(F)F)cn1` (stereo not drawn), the melting point lay within 132 to 133 °C. Under `CS(=O)(=O)c1ccc(C(CC2CCCC2)C(=O)Nc2nccs2)cc1NO` (stereo not drawn) stands 124 to 126 °C; under `COc1ccc(C(CCCCl)=NNC(N)=S)cc1`, 137 to 140 °C. Molecule `COc1cc(OC)c(CN2CCc3cc(O)c(OC)cc3C2)c(OC)c1` gave a melting point of 150 to 151 °C. The molecule `CCc1nc2c(N)nc(C)c(C)c2n1Cc1cc(-c2ccc(F)cc2)no1` showed a melting point of 255 to 256 °C.

Turning to `O=C(NCc1ccccc1)C1=C(c2ccccc2)C(c2ccccc2)OC1=O` (stereo not drawn), the melting point was 173 to 175 °C.

Turning to `Nc1ncc(Sc2ccc(F)cc2F)s1`, the melting point is 116 to 117 °C. `COc1cc(O)c(CN(CCc2ccc([N+](=O)[O-])cc2)C(=O)OC(C)(C)C)c(OC)c1`: the melting point was 134 °C.

`COCc1cnc(C(=O)O)c(C(=O)O)c1` registered a melting point of 161 to 162 °C. In turn, `N#CNC(=O)c1cc2cc(N3CCN(CCCCc4c[nH]c5ccc(C#N)cc45)CC3)ccc2o1` returned a melting point of 190 °C. Under `O=C1NCCN1CCN1CCC(c2cn(-c3ccc(F)cc3)c3ccc(O)cc23)CC1` stands 220 °C; under `[N-]=[N+]=C1C(=O)Nc2ccc(F)cc21`, 209 to 210 °C; under `OCN1CCN=C1CC(c1ccccc1)c1ccccc1`, 161 to 163 °C. As for `CCc1c(O)cccc1O`, the melting point was in the range of 58 to 59 °C. As to `COC(=O)c1ccc(NN=CC(F)(F)F)cc1S(=O)(=O)NC(=O)Nc1nc(OC)nc(OC)n1`, the melting point was 117 to 119 °C. `COC(=O)C1=C(C)NC(C)=C(C(=O)OCCCC#N)C1c1ccccc1[N+](=O)[O-]` (stereo not drawn): the melting point fell in the range of 48 to 51 °C. With `CSCC(=O)N(C)C(C)=Nc1cn(-c2cccnc2)nc1C`, the melting point fell in the range of 54 to 57 °C. Regarding `CC(C)(C)c1cc(CCc2ccccc2NC(=O)NCCc2ccc([N+](=O)[O-])cc2)cc(C(C)(C)C)c1O`, the melting point fell in the range of 134 to 136 °C. For `O=C(NC(=O)N1CCSC1c1ccccc1OCCN1CCN(c2cccc(F)c2)CC1)c1ccccc1` (stereo not drawn), the melting point is 125 to 127 °C. Under `O=C(O)/C=C1/c2ccccc2N(C(=O)c2ccc(NC(=O)c3ccccc3-c3ccccc3)cc2)CCC1(F)F` stands 224 to 226 °C; under `CCOC(=O)c1cc(=O)c2ccc(NCc3ccccc3)c([N+](=O)[O-])c2o1`, 168 °C. The value for `CCOC(=O)Cn1c(N)nc(-c2ccccc2)c1-c1ccccc1` was 173 to 175 °C; that for `CS(=O)(=O)c1ccc(-c2cnn(-c3cccc(Cl)c3)c(=O)c2Oc2ccc(F)cc2)cc1` was 211 to 213 °C; that for `Cc1sc(-c2ccccc2)nc1COc1ccc(C=O)cc1` was 118 to 119 °C. The value for `Clc1cccc(-c2cn3c(n2)sc2ccccc23)c1` was 173 to 175 °C. `COC(=O)[C@@H]1C(=O)c2cc(OCc3ccccc3)ccc2[C@H]1c1ccc2c(c1)OCO2` (racemic) had a melting point of 148 to 150 °C. Take `O=C(O)CSSc1ccc([N+](=O)[O-])cc1C(Cl)(Cl)Cl`: the melting point turned out to be 140 °C. `O=C(O)CC1c2ccccc2CCc2cc(Cl)ccc21` (stereo not drawn) returned a melting point of 142 to 146 °C. Turning to `CNC(=O)C(c1ccccc1F)N(C(=O)CNC(=O)Nc1cccc(C)c1)c1cccc(OC)c1` (stereo not drawn), the melting point stood at 110 °C.

The molecule `CN1C(=O)CCC2(C)c3ccc(Sc4ccccn4)cc3CCC12` (single isomer, unassigned; (+)) yielded a melting point of 174 to 176 °C.

The molecule `Cc1cc(-c2nc3cccnn3c2-c2ccnc(NC(=O)NCC(C)O)c2)ccc1F` (stereo not drawn) returned a melting point of 139 to 140 °C. As for `N#CCCC=NNc1ccc(CS(N)(=O)=O)cc1`, the melting point lay within 175 to 176 °C. With `CC(C)(C)OC(=O)N1CCN(C(=O)Nc2ccccc2)CC1`, the melting point was 168 to 169 °C.

Consider `CC(C(=O)O)c1ccc(N2C(=O)C3CCCCC3C2=O)cc1` (stereo not drawn), for which the melting point lay within 224 to 226 °C.

Molecule `CC(NC(=O)Cc1cc(F)cc(F)c1)C(=O)NC1C(=O)NC(c2ccccn2)c2ccccc21` (stereo not drawn) gave a melting point of 100 °C. `C=Cc1ncn(-c2c(Cl)cc(C(F)(F)F)cc2Cl)n1` yielded a melting point of 97 to 99 °C. Under `N#Cc1c(N2CCN(C(=O)c3cccs3)CC2)c2cscc2n(-c2cccnc2)c1=O` stands 282 °C. The molecule `CCOC(=O)C(CCCCCN1C(=O)c2ccccc2C1=O)(NC(C)=O)C(=O)OCC` displayed a melting point of 70 to 72 °C. In turn, `CC(=O)N1CCN=C1Nc1cc(C)nn1-c1ccccc1` came in with a melting point of 153 to 162 °C. Molecule `O=S1(=O)c2ccccc2-c2ccccc2N1CCCN1CCN(c2ccc(F)cc2)CC1` came in with a melting point of 163 °C. Under `CS(=O)(=O)c1ccc(N2CCc3[nH]c4c(cnc5cc(Cl)ccc54)c3C2)cc1` stands greater than 250 °C; under `Oc1cccc(-n2nc(-c3ccccc3)c3cccnc32)c1`, 142 to 144 °C.

Take `Nc1nc2nc(SCc3ccccc3)ncc2cc1Oc1ccc(F)cc1`: the melting point fell in the range of 186 to 192 °C. In turn, `Cc1cc(-c2cc(C(F)(F)F)n3ncc(-c4ccnc(CO)c4)c3n2)ccc1Cl` yielded a melting point of 220 °C.

Molecule `CCCCCS(=O)(=O)NC(=O)C(Cc1ccc(OCCOC)cc1Oc1ncc(C(F)(F)F)cc1Cl)OC` (stereo not drawn) displayed a melting point of 76 to 78 °C. Regarding `CCOc1cc2c(O)c(Br)cnc2nc1C`, the melting point fell in the range of 266 to 267 °C. Molecule `Cc1ccc(C(=O)Nc2cc(-c3cccnc3)cc(C(F)(F)F)c2)cc1Nc1nccc(-c2cccnc2)n1` displayed a melting point of 275 to 279 °C. The molecule `COc1cc(Br)c(C=O)cc1OCc1ccccc1` returned a melting point of 140 to 141 °C. Molecule `CCc1nc2cccc(C)c2c(=O)n1-c1ccc(F)cc1` showed a melting point of 170 °C. `CN(C)c1ccc([N+](=O)[O-])cn1` came in with a melting point of 146 to 149 °C. Take `CCN1CCN(Cc2ccc(C(=O)Nc3ccc(C)c(Nc4nccc(-c5cccnc5)n4)c3)cc2)CC1`: the melting point is 210 °C. Under `CCCCCCCCCCCCCCCCCCNC(=O)NCCCS(C)=O` (stereo not drawn) stands 105 °C; under `CC(CF)(CF)C(=O)C=Cc1ccccc1`, 45 °C.

For `CC(=O)Oc1ccc(C=Cc2cc(OC(C)=O)c(OC(C)=O)c(OC(C)=O)c2)cc1`, the melting point was 162 to 163 °C.

Molecule `CCCC(C(C)=CC(CNC(=O)c1cccnc1)=NO)[N+](=O)[O-]` (stereo not drawn) came in with a melting point of 128 to 131 °C. For the molecule `CC(C)CCCC(C)NC(=O)Oc1ccc(Oc2ccccc2)cc1F` (stereo not drawn), the melting point fell in the range of 37 to 41 °C. Take `CN(C)C1(Cc2ccccc2)CCC(O)(c2csc3ccccc23)CC1` (stereo not drawn): the melting point is 158 to 160 °C. `COCOc1ccc([N+](=O)[O-])c(C=O)c1`: the melting point lay within 68 to 69 °C.

For the molecule `O=C1N[C@H](Cc2ccc(CC(F)(F)C(F)(F)F)cc2)[C@H](c2cccc(Cl)c2)O1` (racemic), the melting point was 137 to 138 °C. The molecule `CC(C)OC(=O)c1nc(Cl)sc1Cl` yielded a melting point of 46 °C. In the case of `N#Cc1cnn(-c2ccc(Cl)c(Cl)c2Cl)c1NC(=O)CCCCl`, the melting point is 173 to 174 °C. The value for `CC1(C(=O)CC(=O)c2ccc(S(C)(=O)=O)c(Cl)c2Cl)CC1` was 143 °C; that for `Nc1cc(C=O)nc(-c2ccc(C(F)(F)F)nc2)c1F` was 166 to 167 °C.

`COc1cc(C2=C(c3c(-c4ccccc4)[nH]c4ccccc34)C(=O)NC2=O)cc(OC)c1OC` gave a melting point of 304 °C. `COc1cc(C)c(OC)c(C=C(C)[N+](=O)[O-])c1C` displayed a melting point of 48 to 49 °C.

The molecule `Fc1cccc(F)c1Cn1c(-c2c(F)cccc2F)nc2c(CCl)cccc21` showed a melting point of 143 to 144 °C. Molecule `COC(=O)c1ccc(C(=O)O)c(NC(=O)C(F)(F)F)c1` registered a melting point of 185 to 186 °C. The molecule `Fc1cccc(F)c1-c1nc(/C=C/c2ccc(C3CCCCC3)cc2)no1` came in with a melting point of 86 to 87 °C. In turn, `Fc1cc(Cl)ccc1C1(Br)NNC2=C1CCCC2` (stereo not drawn) had a melting point of 95 to 98 °C.

`CN(C(=O)c1ccc(Cn2ncc3ccccc32)cc1)C1CCNCC1` yielded a melting point of 146 to 148 °C.

Consider `O=S(=O)(O)c1ccccc1Nc1ccnc2cc(Cl)ccc12`, for which the melting point was greater than 300 °C. With `Nc1c([N+](=O)[O-])sc2c(Cl)cc(Cl)cc12`, the melting point is 290 to 292 °C.

Turning to `O=C1C(=Cc2ccncc2)COc2ccccc21`, the melting point came out at 132 °C. Under `CCCc1ccc(-c2[nH]nc3c2C(=O)c2c(NC(C)=O)cccc2-3)cc1` stands 269 °C.

Molecule `COc1ccc2[nH]c(S(=O)Cc3cc(N)c(Br)cn3)nc2c1` (stereo not drawn) gave a melting point of 130 to 132 °C. Under `O=C1c2c(Cl)ccc(Cl)c2-c2nn(CCNCCO)c3ccc(NCCNCCO)c1c23` stands 196 °C; under `COCCOc1cc(N(C)S(=O)(=O)c2ccccn2)c2[nH]c(C3=NCC(CN4CCS(=O)CC4)S3)cc2c1` (stereo not drawn), 182 to 183 °C.

Molecule `CC1(C)OC(C=Cc2ccc(Cl)c(Cl)c2)=CC1=O` registered a melting point of 100 to 102 °C.

`Cc1cc(C)c2nnn(C(=O)N3CCOCC3)c2c1` showed a melting point of 115 °C.
